{
  "source": "patent US20100305098A1",
  "about": "“METHODS OF USE” (priority 2007, published 2010)",
  "key": {"GABA": {"target": "T1, GABA (Homo sapiens, UniProt Q9UBS5)", "T1 construct": "Millipore", "experiment": "FLIPR functional screen", "format": "cell-based", "settings": "antagonist mode"}, "CB1": {"target": "T2, CB1 (Homo sapiens, UniProt P21554)", "T2 construct": "Millipore", "T2 sequence (P21554 whole entry, species assumed)": "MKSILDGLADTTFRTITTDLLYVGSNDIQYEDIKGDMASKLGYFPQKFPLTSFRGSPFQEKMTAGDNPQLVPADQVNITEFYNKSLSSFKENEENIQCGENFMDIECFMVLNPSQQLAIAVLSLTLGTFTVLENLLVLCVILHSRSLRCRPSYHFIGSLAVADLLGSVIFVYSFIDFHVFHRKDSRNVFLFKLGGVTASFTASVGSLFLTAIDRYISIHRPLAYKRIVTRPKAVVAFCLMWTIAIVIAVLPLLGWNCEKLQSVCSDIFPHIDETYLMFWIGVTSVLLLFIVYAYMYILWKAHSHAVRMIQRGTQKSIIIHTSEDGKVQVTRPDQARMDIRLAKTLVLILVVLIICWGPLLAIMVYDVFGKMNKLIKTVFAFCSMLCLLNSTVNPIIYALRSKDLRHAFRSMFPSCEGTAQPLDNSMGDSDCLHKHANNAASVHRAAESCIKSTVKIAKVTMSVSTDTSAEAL", "experiment": "FLIPR functional screen", "format": "cell-based", "settings": "antagonist mode"}, "ADRB2": {"target": "T3, ADRB2 (Homo sapiens, UniProt P07550)", "T3 construct": "purchased Millipore (outsourced screen)", "experiment": "FLIPR functional screen", "format": "cell-based", "settings": "antagonist mode"}, "CCR2B": {"target": "T4, CCR2B (Homo sapiens, UniProt P41597)", "T4 construct": "Millipore", "experiment": "FLIPR functional screen", "format": "cell-based", "settings": "antagonist mode"}, "VPAC1": {"target": "T5, VPAC1 (Homo sapiens, UniProt P32241)", "T5 construct": "Millipore", "T5 sequence (P32241 31-457)": "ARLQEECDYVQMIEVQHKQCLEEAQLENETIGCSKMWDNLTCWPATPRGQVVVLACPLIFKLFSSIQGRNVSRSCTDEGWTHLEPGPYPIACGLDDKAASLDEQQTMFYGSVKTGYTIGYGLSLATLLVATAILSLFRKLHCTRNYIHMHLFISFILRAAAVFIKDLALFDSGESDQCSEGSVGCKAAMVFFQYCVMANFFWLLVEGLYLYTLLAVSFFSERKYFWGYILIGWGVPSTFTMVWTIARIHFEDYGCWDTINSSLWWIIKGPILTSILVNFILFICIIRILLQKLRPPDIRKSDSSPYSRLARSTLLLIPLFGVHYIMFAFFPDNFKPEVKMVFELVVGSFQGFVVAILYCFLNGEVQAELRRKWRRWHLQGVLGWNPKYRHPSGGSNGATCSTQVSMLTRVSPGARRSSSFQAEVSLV", "experiment": "FLIPR functional screen", "format": "cell-based", "settings": "antagonist mode"}, "OPRM1": {"target": "T6, OPRM1 (Homo sapiens, UniProt P35372)", "T6 construct": "Millipore", "experiment": "FLIPR functional screen", "format": "cell-based", "settings": "antagonist mode"}, "PK1": {"target": "T7, PK1 (Homo sapiens, UniProt Q8TCW9)", "T7 construct": "Millipore", "T7 sequence (Q8TCW9 whole entry)": "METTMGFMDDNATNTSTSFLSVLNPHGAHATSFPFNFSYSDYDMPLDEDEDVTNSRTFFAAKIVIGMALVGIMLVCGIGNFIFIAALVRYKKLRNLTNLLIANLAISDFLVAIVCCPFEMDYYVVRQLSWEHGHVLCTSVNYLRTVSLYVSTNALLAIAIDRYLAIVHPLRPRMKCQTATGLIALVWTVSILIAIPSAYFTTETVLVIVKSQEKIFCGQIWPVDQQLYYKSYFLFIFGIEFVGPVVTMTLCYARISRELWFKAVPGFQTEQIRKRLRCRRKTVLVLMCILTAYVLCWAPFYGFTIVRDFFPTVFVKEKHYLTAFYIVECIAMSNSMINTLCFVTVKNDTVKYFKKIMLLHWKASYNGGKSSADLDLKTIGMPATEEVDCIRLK", "experiment": "FLIPR functional screen", "format": "cell-based", "settings": "PK-1, antagonist mode"}, "PAF": {"target": "T8, PAF (Homo sapiens, UniProt P25105)", "T8 construct": "Millipore", "experiment": "FLIPR functional screen", "format": "cell-based", "settings": "antagonist mode"}, "NTR1": {"target": "T9, NTR1 (Homo sapiens, UniProt P30989)", "T9 construct": "Millipore", "experiment": "FLIPR functional screen", "format": "cell-based", "settings": "antagonist mode"}, "5-HT2B": {"target": "T10, 5-HT2B (Homo sapiens, UniProt P41595)", "T10 construct": "purchased Millipore (outsourced screen)", "experiment": "FLIPR functional screen", "format": "cell-based", "settings": "antagonist mode"}, "H2": {"target": "T11, H2 (Homo sapiens, UniProt P25021)", "T11 construct": "Millipore", "experiment": "FLIPR functional screen", "format": "cell-based", "settings": "antagonist mode"}, "H3": {"target": "T12, H3 (Homo sapiens, UniProt Q9Y5N1)", "T12 construct": "Millipore", "experiment": "FLIPR functional screen", "format": "cell-based", "settings": "antagonist mode"}, "MC4": {"target": "T13, MC4 (Homo sapiens, UniProt P32245)", "T13 construct": "Millipore", "T13 sequence (P32245 whole entry)": "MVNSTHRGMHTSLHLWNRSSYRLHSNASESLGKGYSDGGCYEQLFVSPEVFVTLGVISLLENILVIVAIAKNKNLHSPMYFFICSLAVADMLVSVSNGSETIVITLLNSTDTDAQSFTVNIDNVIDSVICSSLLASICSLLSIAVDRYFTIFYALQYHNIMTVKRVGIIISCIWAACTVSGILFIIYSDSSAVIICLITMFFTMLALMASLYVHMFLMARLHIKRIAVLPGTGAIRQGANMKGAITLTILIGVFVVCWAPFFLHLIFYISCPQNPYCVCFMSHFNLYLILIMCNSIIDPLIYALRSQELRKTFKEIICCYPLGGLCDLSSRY", "experiment": "FLIPR functional screen", "format": "cell-based", "settings": "antagonist mode"}, "CXCR1": {"target": "T14, CXCR1 (Homo sapiens, UniProt P25024)", "T14 construct": "Millipore", "experiment": "FLIPR functional screen", "format": "cell-based", "settings": "antagonist mode"}, "CXCR2": {"target": "T15, CXCR2 (Homo sapiens, UniProt P25025)", "T15 construct": "Millipore", "experiment": "FLIPR functional screen", "format": "cell-based", "settings": "antagonist mode"}, "GPR54": {"target": "T16, GPR54 (Homo sapiens, UniProt Q969F8)", "T16 construct": "Millipore", "experiment": "FLIPR functional screen", "format": "cell-based", "settings": "antagonist mode"}, "A2B": {"target": "T17, A2B (Homo sapiens, UniProt P29275)", "T17 construct": "purchased Millipore (outsourced screen)", "experiment": "FLIPR functional screen", "format": "cell-based", "settings": "antagonist mode"}, "VPAC2": {"target": "T18, VPAC2 (Homo sapiens, UniProt P41587)", "T18 construct": "Millipore", "T18 sequence (P41587 24-438)": "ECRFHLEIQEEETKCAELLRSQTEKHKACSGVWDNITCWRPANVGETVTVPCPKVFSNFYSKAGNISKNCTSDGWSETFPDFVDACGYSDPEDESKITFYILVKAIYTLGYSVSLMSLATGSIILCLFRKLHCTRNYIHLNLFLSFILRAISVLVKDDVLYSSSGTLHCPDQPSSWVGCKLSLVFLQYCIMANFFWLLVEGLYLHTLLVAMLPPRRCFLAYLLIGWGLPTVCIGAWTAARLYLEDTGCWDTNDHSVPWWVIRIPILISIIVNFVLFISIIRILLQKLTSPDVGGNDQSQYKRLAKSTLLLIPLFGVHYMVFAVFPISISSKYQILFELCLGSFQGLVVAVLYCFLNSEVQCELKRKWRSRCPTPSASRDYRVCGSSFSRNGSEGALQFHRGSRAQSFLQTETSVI", "experiment": "FLIPR functional screen", "format": "cell-based", "settings": "antagonist mode"}, "PAC1": {"target": "T19, PAC1 (Homo sapiens, UniProt P41586)", "T19 construct": "Millipore", "experiment": "FLIPR functional screen", "format": "cell-based", "settings": "antagonist mode"}, "FP": {"target": "T20, FP (Homo sapiens, UniProt P43088)", "T20 construct": "Millipore", "experiment": "FLIPR functional screen", "format": "cell-based", "settings": "antagonist mode"}, "P2Y1": {"target": "T21, P2Y1 (Homo sapiens, UniProt P47900)", "T21 construct": "Millipore", "T21 sequence (P47900 whole entry, species assumed)": "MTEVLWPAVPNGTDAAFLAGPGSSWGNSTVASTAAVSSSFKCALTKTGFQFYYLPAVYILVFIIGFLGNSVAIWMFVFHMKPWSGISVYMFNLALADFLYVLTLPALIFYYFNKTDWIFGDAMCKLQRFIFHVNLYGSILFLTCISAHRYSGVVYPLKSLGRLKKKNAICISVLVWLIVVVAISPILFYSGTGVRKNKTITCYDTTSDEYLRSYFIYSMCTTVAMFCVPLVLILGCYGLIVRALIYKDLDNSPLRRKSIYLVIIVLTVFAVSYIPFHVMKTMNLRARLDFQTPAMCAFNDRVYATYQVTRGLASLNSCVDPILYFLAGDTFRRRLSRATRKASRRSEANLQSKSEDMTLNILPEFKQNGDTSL", "experiment": "FLIPR functional screen", "format": "cell-based", "settings": "antagonist mode"}, "S1P5": {"target": "T22, S1P5 (Homo sapiens, UniProt Q9H228)", "T22 construct": "Millipore", "experiment": "FLIPR functional screen", "format": "cell-based", "settings": "antagonist mode"}, "CCK1": {"target": "T23, CCK1 (Homo sapiens, UniProt P32238)", "T23 construct": "Millipore", "experiment": "FLIPR functional screen", "format": "cell-based", "settings": "antagonist mode"}, "D1": {"target": "T24, D1 (Homo sapiens, UniProt P21728)", "T24 construct": "Millipore", "experiment": "FLIPR functional screen", "format": "cell-based", "settings": "antagonist mode"}, "NK3": {"target": "T25, NK3 (Homo sapiens, UniProt P29371)", "T25 construct": "Millipore", "experiment": "FLIPR functional screen", "format": "cell-based", "settings": "antagonist mode"}, "[1]": {"target": "T26, Prostanoid, Thromboxane A2 (TP) (Homo sapiens, UniProt P21731)", "T26 construct": "purchased MDS Pharma (outsourced assay)", "T26 sequence (P21731 whole entry)": "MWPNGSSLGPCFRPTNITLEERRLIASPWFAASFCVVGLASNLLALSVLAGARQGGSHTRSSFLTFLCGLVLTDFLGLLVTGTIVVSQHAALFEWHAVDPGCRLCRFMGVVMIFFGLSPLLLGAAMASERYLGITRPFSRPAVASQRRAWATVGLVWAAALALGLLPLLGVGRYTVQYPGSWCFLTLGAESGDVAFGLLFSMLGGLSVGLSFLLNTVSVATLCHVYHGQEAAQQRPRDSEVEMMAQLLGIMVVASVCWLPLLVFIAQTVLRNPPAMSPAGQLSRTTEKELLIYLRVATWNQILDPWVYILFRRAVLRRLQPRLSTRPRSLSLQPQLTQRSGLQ", "experiment": "Competitive radioligand binding (MDS Pharma)"}, "EP4": {"target": "T27, EP4 (Homo sapiens, UniProt P35408)", "T27 construct": "SE302 cells that express endogenous EP4; endogenous in cells; host or cells: SE302 cells", "T27 sequence (P35408 whole entry)": "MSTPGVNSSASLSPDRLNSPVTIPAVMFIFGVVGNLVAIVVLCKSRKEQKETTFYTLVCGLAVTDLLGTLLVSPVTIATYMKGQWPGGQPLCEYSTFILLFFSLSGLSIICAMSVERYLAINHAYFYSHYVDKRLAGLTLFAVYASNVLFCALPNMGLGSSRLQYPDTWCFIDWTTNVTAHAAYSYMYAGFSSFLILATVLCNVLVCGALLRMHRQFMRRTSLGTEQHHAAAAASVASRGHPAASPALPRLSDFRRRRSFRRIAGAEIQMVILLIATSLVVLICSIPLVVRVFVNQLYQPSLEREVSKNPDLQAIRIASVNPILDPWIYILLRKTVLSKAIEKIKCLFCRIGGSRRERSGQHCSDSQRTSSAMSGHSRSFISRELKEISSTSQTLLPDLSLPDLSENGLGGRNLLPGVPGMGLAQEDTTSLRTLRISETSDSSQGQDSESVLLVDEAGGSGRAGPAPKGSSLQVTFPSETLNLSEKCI", "experiment": "FLIPR functional screen", "format": "cell-based"}, "FPR2": {"target": "T28, FPR2 (Homo sapiens, UniProt P25090)", "T28 construct": "Millipore", "experiment": "FLIPR functional screen", "format": "cell-based", "settings": "antagonist mode"}, "CRF1": {"target": "T29, CRF1 (Homo sapiens, UniProt P34998)", "T29 construct": "Millipore", "T29 sequence (P34998 24-415)": "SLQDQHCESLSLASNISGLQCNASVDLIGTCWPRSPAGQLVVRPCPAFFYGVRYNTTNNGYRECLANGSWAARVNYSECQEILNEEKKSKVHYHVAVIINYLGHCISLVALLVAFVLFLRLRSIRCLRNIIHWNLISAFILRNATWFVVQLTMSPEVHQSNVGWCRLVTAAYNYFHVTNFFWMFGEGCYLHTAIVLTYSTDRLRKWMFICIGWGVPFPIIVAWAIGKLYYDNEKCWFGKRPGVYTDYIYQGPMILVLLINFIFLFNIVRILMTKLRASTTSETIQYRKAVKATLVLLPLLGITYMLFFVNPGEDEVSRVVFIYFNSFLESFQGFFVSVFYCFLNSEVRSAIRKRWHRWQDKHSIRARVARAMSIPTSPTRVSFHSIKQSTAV", "experiment": "FLIPR functional screen", "format": "cell-based", "settings": "antagonist mode"}, "GPR41": {"target": "T30, GPR41 (Homo sapiens, UniProt O14843)", "T30 construct": "Millipore", "T30 sequence (O14843 whole entry, species assumed)": "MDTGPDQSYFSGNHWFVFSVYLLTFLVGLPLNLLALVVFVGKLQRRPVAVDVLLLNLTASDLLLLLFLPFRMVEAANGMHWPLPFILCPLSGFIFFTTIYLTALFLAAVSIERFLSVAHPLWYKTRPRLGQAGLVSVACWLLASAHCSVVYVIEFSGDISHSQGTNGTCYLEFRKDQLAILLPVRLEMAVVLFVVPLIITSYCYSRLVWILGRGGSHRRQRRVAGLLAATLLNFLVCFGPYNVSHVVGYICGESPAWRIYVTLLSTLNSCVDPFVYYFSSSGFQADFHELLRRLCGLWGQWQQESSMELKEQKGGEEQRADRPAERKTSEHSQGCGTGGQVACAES", "experiment": "FLIPR functional screen", "format": "cell-based", "settings": "antagonist mode"}, "CCR4": {"target": "T31, CCR4 (Homo sapiens, UniProt P51679)", "T31 construct": "Millipore", "experiment": "FLIPR functional screen", "format": "cell-based", "settings": "antagonist mode"}, "Y2": {"target": "T32, Y2 (Homo sapiens, UniProt P49146)", "T32 construct": "Millipore", "experiment": "FLIPR functional screen", "format": "cell-based", "settings": "antagonist mode"}, "Prostanoid EP2": {"target": "T33, Prostanoid EP2 (Homo sapiens, UniProt P43116)", "T33 construct": "purchased MDS Pharma (outsourced assay)", "T33 sequence (P43116 whole entry)": "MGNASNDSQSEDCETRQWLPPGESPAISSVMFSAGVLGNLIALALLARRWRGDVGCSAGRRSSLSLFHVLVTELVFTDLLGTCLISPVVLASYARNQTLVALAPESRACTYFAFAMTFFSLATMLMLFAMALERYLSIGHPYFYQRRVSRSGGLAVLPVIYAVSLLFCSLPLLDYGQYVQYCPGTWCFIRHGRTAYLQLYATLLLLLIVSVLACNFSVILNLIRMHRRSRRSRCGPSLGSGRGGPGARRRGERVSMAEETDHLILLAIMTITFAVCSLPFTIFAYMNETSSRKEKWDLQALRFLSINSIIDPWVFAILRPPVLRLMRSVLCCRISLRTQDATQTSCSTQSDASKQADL", "experiment": "Competitive radioligand binding (MDS Pharma)"}, "C3AR": {"target": "T34, C3AR (Homo sapiens, UniProt Q16581)", "T34 construct": "Millipore", "experiment": "FLIPR functional screen", "format": "cell-based", "settings": "antagonist mode"}, "MOTILIN": {"target": "T35, MOTILIN (Homo sapiens, UniProt O43193)", "T35 construct": "Millipore", "experiment": "FLIPR functional screen", "format": "cell-based", "settings": "antagonist mode"}, "CGRP1": {"target": "T36, CGRP1 (Homo sapiens, UniProt O60894+Q16602)", "T36 construct": "Millipore", "T36 sequence (Q16602 23-461)": "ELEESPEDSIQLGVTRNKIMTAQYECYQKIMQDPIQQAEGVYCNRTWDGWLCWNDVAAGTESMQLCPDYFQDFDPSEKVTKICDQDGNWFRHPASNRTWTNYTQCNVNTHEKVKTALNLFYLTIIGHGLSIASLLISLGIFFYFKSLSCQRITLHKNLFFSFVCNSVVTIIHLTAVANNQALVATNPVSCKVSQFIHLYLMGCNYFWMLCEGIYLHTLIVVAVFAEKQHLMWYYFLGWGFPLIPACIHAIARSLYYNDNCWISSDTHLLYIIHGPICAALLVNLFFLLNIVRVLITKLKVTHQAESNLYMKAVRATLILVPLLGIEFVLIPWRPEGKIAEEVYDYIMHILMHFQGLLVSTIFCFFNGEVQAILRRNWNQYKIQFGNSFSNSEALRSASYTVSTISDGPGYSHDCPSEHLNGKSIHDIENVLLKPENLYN", "T36 sequence (O60894 27-148 partner)": "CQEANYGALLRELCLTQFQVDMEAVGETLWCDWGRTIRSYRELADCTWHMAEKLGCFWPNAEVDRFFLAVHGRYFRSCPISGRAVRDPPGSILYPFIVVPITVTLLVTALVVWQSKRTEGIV", "experiment": "FLIPR functional screen", "format": "cell-based", "settings": "antagonist mode"}, "OPRD1": {"target": "T37, OPRD1 (Homo sapiens, UniProt P41143)", "T37 construct": "Millipore", "experiment": "FLIPR functional screen", "format": "cell-based", "settings": "antagonist mode"}},
  "data": [
    {"smiles": "CCN1C(=O)N2Cc3cc(OC)cc(OC)c3[C@@H](C)C=C2C12CCN(Cc1cccn1C)CC2", "note": "[ER-819924-01]", "values": [
      {"measurement": "inhibition at 1 µM", "setting": "GABA", "value": 6, "unit": "%"},
      {"measurement": "inhibition at 1 µM", "setting": "CB1", "value": 10.5, "unit": "%"},
      {"measurement": "inhibition at 1 µM", "setting": "ADRB2", "value": -2.3, "unit": "%"},
      {"measurement": "inhibition at 1 µM", "setting": "CCR2B", "value": 3.7, "unit": "%"},
      {"measurement": "inhibition at 1 µM", "setting": "VPAC1", "value": 4.6, "unit": "%"},
      {"measurement": "inhibition at 1 µM", "setting": "OPRM1", "value": 35, "unit": "%"},
      {"measurement": "inhibition at 1 µM", "setting": "PK1", "value": -4.3, "unit": "%"},
      {"measurement": "inhibition at 1 µM", "setting": "PAF", "value": 5.4, "unit": "%"},
      {"measurement": "inhibition at 1 µM", "setting": "NTR1", "value": 0.5, "unit": "%"},
      {"measurement": "inhibition at 1 µM", "setting": "5-HT2B", "value": 11.3, "unit": "%"},
      {"measurement": "inhibition at 1 µM", "setting": "H2", "value": 1.8, "unit": "%"},
      {"measurement": "inhibition at 1 µM", "setting": "H3", "value": -31.5, "unit": "%"},
      {"measurement": "inhibition at 1 µM", "setting": "MC4", "value": -5.1, "unit": "%"},
      {"measurement": "inhibition at 1 µM", "setting": "CXCR1", "value": 3.9, "unit": "%"},
      {"measurement": "inhibition at 1 µM", "setting": "CXCR2", "value": 1.2, "unit": "%"},
      {"measurement": "inhibition at 1 µM", "setting": "GPR54", "value": -0.4, "unit": "%"},
      {"measurement": "inhibition at 1 µM", "setting": "A2B", "value": 6.9, "unit": "%"},
      {"measurement": "inhibition at 1 µM", "setting": "VPAC2", "value": -3.7, "unit": "%"},
      {"measurement": "inhibition at 1 µM", "setting": "PAC1", "value": 4.1, "unit": "%"},
      {"measurement": "inhibition at 1 µM", "setting": "FP", "value": 14, "unit": "%"},
      {"measurement": "inhibition at 1 µM", "setting": "P2Y1", "value": -37.5, "unit": "%"},
      {"measurement": "inhibition at 1 µM", "setting": "S1P5", "value": -7.4, "unit": "%"},
      {"measurement": "inhibition at 1 µM", "setting": "CCK1", "value": 13, "unit": "%"},
      {"measurement": "inhibition at 1 µM", "setting": "D1", "value": 14, "unit": "%"},
      {"measurement": "inhibition at 1 µM", "setting": "NK3", "value": -2.2, "unit": "%"},
      {"measurement": "% INHIBITION", "setting": "[1]; CONC. 0.1 μm", "value": "−3", "unit": "%"},
      {"measurement": "% INHIBITION", "setting": "[1]; CONC. 1 μm", "value": "−14", "unit": "%"},
      {"measurement": "activity in FLIPR functional screen versus other GPCR's", "setting": "EP4; 1 μM, Millipore outsourced data", "value": "showed activity only against the EP4 receptor"},
      {"measurement": "inhibition at 1 µM", "setting": "EP4; antagonist mode", "value": 100, "unit": "%"},
      {"measurement": "inhibition at 1 µM", "setting": "FPR2", "value": 6.9, "unit": "%"},
      {"measurement": "inhibition at 1 µM", "setting": "CRF1", "value": 3.9, "unit": "%"},
      {"measurement": "inhibition at 1 µM", "setting": "GPR41", "value": -7.3, "unit": "%"},
      {"measurement": "inhibition at 1 µM", "setting": "CCR4", "value": -13.4, "unit": "%"},
      {"measurement": "inhibition at 1 µM", "setting": "Y2", "value": -1, "unit": "%"},
      {"measurement": "% INHIBITION", "setting": "Prostanoid EP2; CONC. 0.1 μm", "value": "−3", "unit": "%"},
      {"measurement": "% INHIBITION", "setting": "Prostanoid EP2; CONC. 1 μm", "value": 1, "unit": "%"},
      {"measurement": "inhibition at 1 µM", "setting": "C3AR", "value": -8.2, "unit": "%"},
      {"measurement": "inhibition at 1 µM", "setting": "MOTILIN", "value": -0.9, "unit": "%"},
      {"measurement": "inhibition at 1 µM", "setting": "CGRP1", "value": -5.6, "unit": "%"},
      {"measurement": "inhibition at 1 µM", "setting": "OPRD1", "value": 5.7, "unit": "%"}
    ]}
  ]
}
